Assay results: patent US6469003B1, “Pyridazinone derivatives” (Nihon Nohyaku Co., Ltd., priority 1998, dated 2002)

tested on: neutrophils isolated from human peripheral blood; test: Test of neutrophil adhesion inhibitory activity (fMLP-induced adhesion to keyhole limpet hemocyanin-coated plate); assay type: cell-based; conditions: Neutrophil, fluorescence-labeled, fMLP final concentration of 50 nM, plate coated with keyhole limpet hemocyanin, 37° C., read-out: Test of neutrophil adhesion inhibitory (50% inhibition concentration) IC50
Experimental: Test Example (Test of Neutrophil Adhesion Inhibitory Activity)
To a 96 hole culture plate coated with keyhole limpet hemocyanin were added Dulbecco modified Eagle's media (DMEM, 25 μl) containing various concentrations of the test substance. The neutrophils isolated from human peripheral blood were labeled with fluorescence by means of 5,6-carboxyfluorescein diacetate, suspended into DMEM in a concentration of 1×10^6 cells/ml, and inoculated to the above plate in an amount of 50 μl. Then, after the addition of 25 μl of formylmethionyl-leucyl-phenylalanine (hereinafter referred to as “fMLP”) (final concentration of 50 nM), the cells were cultured at 37° C. for a certain period of time to induce the adhesion of the neutrophils to the plate. After culturing, the plate was washed with phosphate-buffered physiological saline to remove the neutrophils which were not adhered. The adhered neutrophils were dissolved and then the fluorescence intensity was measured. Using the data of a non-stimulated group where the stimulation with fMLP was not carried out and an fMLP-stimulated group where the stimulation was carried out, the adhesion inhibition rate at each concentration of the test substance was determined according to the following equation. From the concentration-inhibition curve, 50% inhibitory concentration (IC50) was calculated.
Adhesion inhibition rate (%)=(Fmax−Fx)/(Fmax−Fo)×100
Fx: the fluorescence intensity of the group treated with a test substance
Fmax: the fluorescence intensity of the fMLP-stimulated group
Fo: the fluorescence intensity of the non-stimulated group

Row | SMILES | IC50 [µM]
1 | CC(=O)c1nn(-c2cccc(Cl)c2)c(=O)c(Sc2ccccc2)c1C [Compound 1-64, 6-acetyl-2-(3-chlorophenyl)-5-methyl-4-phenylthio-3(2H)-pyridazinone] | 0.004
2 | CC(=O)c1nn(-c2cccc(Cl)c2)c(=O)c(S(=O)(=O)c2ccccc2)c1C [Compound 1-83, 6-acetyl-2-(3-chlorophenyl)-5-methyl-4-phenylsulfonyl-3(2H)-pyridazinone] | 0.012
3 | CC(=O)c1nn(-c2cccc(Cl)c2)c(=O)c(-c2cccs2)c1C [Compound 1-97, 6-acetyl-2-(3-chlorophenyl)-5-methyl-4-(2-thienyl)-3(2H)-pyridazinone] | 0.011
4 | Cc1c(C(C)O)nn(-c2cccc(Cl)c2)c(=O)c1Sc1ccccc1 (centres unmarked) [Compound 6-01, 2-(3-chlorophenyl)-6-(1-hydroxyethyl)-5-methyl-4-phenylthio-3(2H)-pyridazinone] | 0.009

same assay, conditions: fluorescence-labeled, fMLP final concentration of 50 nM, plate coated with keyhole limpet hemocyanin, 37° C., read-out: Test of neutrophil adhesion inhibitory (50% inhibition concentration) IC50

Row | SMILES | IC50 [µM]
5 | CC(=O)c1nn(-c2cccc(Cl)c2)c(=O)c(Sc2ccccc2Cl)c1C [Compound 1-01] | 0.016
6 | CC(=O)c1nn(-c2cccc(Cl)c2)c(=O)c(Sc2ccc(Cl)cc2)c1C [Compound 1-03] | 0.027
7 | COc1ccccc1Sc1c(C)c(C(C)=O)nn(-c2cccc(Cl)c2)c1=O [Compound 1-04] | 0.619
8 | COc1cccc(Sc2c(C)c(C(C)=O)nn(-c3cccc(Cl)c3)c2=O)c1 [Compound 1-05] | 0.032
9 | COc1ccc(Sc2c(C)c(C(C)=O)nn(-c3cccc(Cl)c3)c2=O)cc1 [Compound 1-06] | 0.04
10 | CC(=O)c1nn(-c2cccc(Cl)c2)c(=O)c(Sc2ccc(F)cc2)c1C [Compound 1-07] | 0.02
11 | CC(=O)c1nn(-c2cccc(Cl)c2)c(=O)c(Sc2ccc(C)cc2)c1C [Compound 1-08] | 0.139
12 | CC(=O)c1nn(-c2cccc(Cl)c2)c(=O)c(Sc2ccc([N+](=O)[O-])cc2)c1C [Compound 1-10] | 0.093
13 | CC(=O)c1nn(-c2cccc(Cl)c2)c(=O)c(Sc2ccccn2)c1C [Compound 1-11] | 0.079
14 | CSc1c(C)c(C(C)=O)nn(-c2cccc(Cl)c2)c1=O [Compound 1-15] | 0.058
15 | CC(=O)c1nn(-c2cccc(Cl)c2)c(=O)c(SC(C)(C)C)c1C [Compound 1-17] | 0.019
16 | CC(=O)c1nn(-c2ccc(F)cc2)c(=O)c(Sc2ccc(F)cc2)c1C [Compound 1-20] | 0.005
17 | CC(=O)c1nn(-c2ccc(F)cc2)c(=O)c(Sc2ccccn2)c1C [Compound 1-21] | 0.196
18 | CC(=O)c1nn(-c2ccc(F)cc2)c(=O)c(Sc2cccnc2)c1C [Compound 1-22] | 0.009
19 | CC(=O)c1nn(-c2ccc(F)cc2)c(=O)c(Sc2cccnc2)c1C [Compound 1-23] | 0.006
20 | CC(=O)c1nn(-c2ccc(F)cc2)c(=O)c(Sc2ccncc2)c1C [Compound 1-24] | 0.014
21 | CC(=O)c1nn(-c2ccc(F)cc2)c(=O)c(Sc2ccncc2)c1C [Compound 1-25] | 0.01
22 | CC(=O)c1nn(-c2cccnc2)c(=O)c(Sc2ccc(F)cc2)c1C [Compound 1-31] | 0.055

Row | SMILES | IC50 [µM]
23 | CC(=O)c1nn(-c2cccnc2)c(=O)c(Sc2ccncc2)c1C [Compound 1-32] | 0.165
24 | CC(=O)c1nn(-c2cccnc2)c(=O)c(Sc2ccccc2)c1C [Compound 1-68] | 0.007
25 | CC(=O)c1nn(-c2ccc(Cl)cc2)c(=O)c(Sc2ccccc2)c1C [Compound 1-69] | 0.222
26 | CC(=O)c1nn(-c2cccc(Cl)c2)c(=O)c(Oc2ccccc2)c1C [Compound 1-70] | 0.018
27 | CC(=O)c1nn(-c2cccc(Cl)c2)c(=O)c(Oc2ccc(F)cc2)c1C [Compound 1-73] | 0.032
28 | CC(=O)c1nn(-c2cccc(F)c2)c(=O)c(Oc2ccc(F)cc2)c1C [Compound 1-74] | 0.048
29 | O=C(O)c1cc(CSc2ccc(F)cc2)c(=O)n(-c2cccc(Cl)c2)n1 [Compound 1-80, 1-(3-chlorophenyl)-5-(4-fluorophenylthio)-methyl-6-oxohydropridazin-3-carboxylic acid] | 0.668
30 | CC(=O)c1nn(-c2cccc(Cl)c2)c(=O)c([S+]([O-])c2ccccc2)c1C (centres unmarked) [Compound 1-84] | 0.01
31 | CC(=O)c1nn(-c2cccc(F)c2)c(=O)c(-c2cccs2)c1C [Compound 1-98] | 0.656
32 | CC(=O)c1nn(-c2ccc(F)cc2)c(=O)c(-c2cccs2)c1C [Compound 1-100] | 0.41
33 | CC(=O)c1nn(-c2cccnc2)c(=O)c(-c2cccs2)c1C [Compound 1-102] | 0.31
34 | CC(=O)c1nn(-c2ccc(F)cc2)c(=O)c(OCc2ccccn2)c1C [Compound 1-113] | 0.358
35 | CC(=O)c1nn(-c2ccc(F)cc2)c(=O)c(OCc2ccncc2)c1C [Compound 1-115] | 0.044
36 | CC(=O)c1nn(-c2ccc(F)cc2)c(=O)c(OCc2cc[n+]([O-])cc2)c1C [Compound 1-130, 6-acetyl-2-(4-fluorophenyl)-5-methyl-4-((4-pyridyl N-oxide)methoxy)-3(2H)-pyridazinone] | 0.138
37 | CC(=O)c1nn(-c2ccc[n+]([O-])c2)c(=O)c(Sc2ccc(F)cc2)c1C [Compound 1-134, 6-acetyl-4-(4-fluorophenylthio)-5-methyl-2-(3-pyridyl N-oxide)-3(2H)-pyridazinone] | 0.463
38 | CC(=O)Nc1ccc(Sc2c(C)c(C(C)=O)nn(-c3ccc[n+]([O-])c3)c2=O)cc1 [Compound 1-151] | 0.975
39 | Cc1c(C(C)O)nn(-c2ccc(F)cc2)c(=O)c1Sc1ccncc1 (centres unmarked) [Compound 6-02] | 0.306

tested on: not given; test: not given; conditions: not given

Row | SMILES | melting point [°C]
40 | CC(=O)c1nn(-c2ccc(F)cc2)c(=O)c(OCc2cccnc2)c1C.Cl | 153 to 156
41 | CC(=O)c1nn(-c2ccc(Cl)cc2)c(=O)c(Sc2ccc(Cl)cc2)c1C [Compound 1-29, 6-acetyl-2-(4-chlorophenyl)-4-(4-chlorophenylthio)-5-methyl-3(2H)-pyridazinone] | 165 to 166
42 | CC(=O)c1nn(-c2cccc(Cl)c2)c(=O)c(Sc2ccccc2)c1C [Compound 1-64, 6-acetyl-2-(3-chlorophenyl)-5-methyl-4-phenylthio-3(2H)-pyridazinone] | 99 to 100
43 | CC(=O)c1nn(-c2cccc(Cl)c2)c(=O)c(S(=O)(=O)c2ccccc2)c1C [Compound 1-83, 6-acetyl-2-(3-chlorophenyl)-5-methyl-4-phenylsulfonyl-3(2H)-pyridazinone] | 175 to 176
44 | CC(=O)c1nn(-c2cccc(Cl)c2)c(=O)c(-c2cccs2)c1C [Compound 1-97, 6-acetyl-2-(3-chlorophenyl)-5-methyl-4-(2-thienyl)-3(2H)-pyridazinone] | 116 to 117
45 | CC(=O)c1nn(-c2cccc(Cl)c2)c(=O)c(C(N)=S)c1C [Compound 1-153, 6-acetyl-4-(aminothioxomethyl)-2-(3-chlorophenyl)-5-methyl-3(2H)-pyridazinone] | 195 to 197
46 | CC(=O)c1nn(-c2cccc(Cl)c2)c(=O)c(-c2nccs2)c1C [Compound 1-155, 6-acetyl-2-(3-chlorophenyl)-5-methyl-4-(1,3-thiazol-2-yl)-3(2H)-pyridazinone] | 158 to 160
47 | CC(=O)c1nn(-c2ccc(F)cc2)c(=O)c(Sc2ccc(NS(C)(=O)=O)cc2)c1C [Compound 4-01, 6-acetyl-2-(4-fluorophenyl)-5-methyl-4-(4-methylsulfonylaminophenylthio)-3(2H)-pyridazinone] | 182 to 184
48 | CC(=O)c1nn(-c2ccc(F)cc2)c(=O)c(Sc2ccc(N(C)C)cc2)c1C [Compound 4-04, 6-acetyl-4-(4-dimethylaminophenylthio)-2-(4-fluorophenyl)-5-methyl-3(2H)-pyridazinone] | 172 to 174
49 | CC(=O)c1nn(-c2ccc(F)cc2)c(=O)c(SCCN2CCOCC2)c1C [Compound 5-04, 6-acetyl-2-(4-fluorophenyl)-5-methyl-4-(2-morpholin-4-ylethylthio)-3(2H)-pyridazinone] | 92 to 93
50 | Cc1c(C(C)O)nn(-c2cccc(Cl)c2)c(=O)c1Sc1ccccc1 (centres unmarked) [Compound 6-01, 2-(3-chlorophenyl)-6-(1-hydroxyethyl)-5-methyl-4-phenylthio-3(2H)-pyridazinone] | 180 to 182
